Source: the Kinase Knowledgebase extract (Sharma et al. 2016)

target: EGFR (UniProt P00533)
Sequence (P00533 whole entry, looked up): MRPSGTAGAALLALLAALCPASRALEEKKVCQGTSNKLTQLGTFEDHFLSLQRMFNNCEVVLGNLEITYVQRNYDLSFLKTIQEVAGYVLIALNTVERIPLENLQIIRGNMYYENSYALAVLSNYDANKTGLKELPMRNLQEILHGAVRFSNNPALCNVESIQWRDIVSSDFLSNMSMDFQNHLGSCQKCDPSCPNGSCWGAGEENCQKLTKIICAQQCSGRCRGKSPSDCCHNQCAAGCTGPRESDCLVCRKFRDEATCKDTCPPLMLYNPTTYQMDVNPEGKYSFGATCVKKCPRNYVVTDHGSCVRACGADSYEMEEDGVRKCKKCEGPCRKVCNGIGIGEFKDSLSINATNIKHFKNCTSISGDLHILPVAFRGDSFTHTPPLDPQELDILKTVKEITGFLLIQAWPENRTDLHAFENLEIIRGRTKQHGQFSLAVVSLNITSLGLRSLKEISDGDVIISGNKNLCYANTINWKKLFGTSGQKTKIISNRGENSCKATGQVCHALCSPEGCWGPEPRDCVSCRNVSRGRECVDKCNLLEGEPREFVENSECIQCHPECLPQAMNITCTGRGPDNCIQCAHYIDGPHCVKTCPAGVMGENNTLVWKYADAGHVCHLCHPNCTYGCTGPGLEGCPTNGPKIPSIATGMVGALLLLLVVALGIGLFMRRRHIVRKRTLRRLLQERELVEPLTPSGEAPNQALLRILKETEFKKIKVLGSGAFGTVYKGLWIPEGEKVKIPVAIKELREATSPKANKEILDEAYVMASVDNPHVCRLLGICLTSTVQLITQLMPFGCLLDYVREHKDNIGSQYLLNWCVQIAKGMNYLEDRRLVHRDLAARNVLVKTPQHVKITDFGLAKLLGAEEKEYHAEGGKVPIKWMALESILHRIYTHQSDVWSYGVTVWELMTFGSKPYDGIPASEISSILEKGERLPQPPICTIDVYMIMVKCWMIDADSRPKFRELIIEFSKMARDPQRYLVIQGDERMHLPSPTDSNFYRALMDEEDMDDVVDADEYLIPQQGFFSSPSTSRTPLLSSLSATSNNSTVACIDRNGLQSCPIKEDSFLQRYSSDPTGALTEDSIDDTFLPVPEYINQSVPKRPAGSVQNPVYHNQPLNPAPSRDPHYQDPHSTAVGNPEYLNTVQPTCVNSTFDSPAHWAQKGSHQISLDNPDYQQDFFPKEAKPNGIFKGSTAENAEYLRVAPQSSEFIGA

Row | IC50 [µM] | Structure (SMILES)
1 | < 10 | COc1ccc(C2Cc3cnc(Nc4ccccc4)nc3N(CC(C)C)C2=O)cc1 (centres undefined)
2 | > 10 | COc1ccc(C2Cc3cnc(Nc4ccccc4)nc3N(c3ccccc3)C2=O)cc1OC (centres undefined)
3 | < 10 | COc1cc(OC)cc(C2Cc3cnc(Nc4ccccc4)nc3N(c3ccccc3)C2=O)c1 (centres undefined)
4 | < 10 | O=C1C(c2ccccc2)Cc2cnc(Nc3ccccc3)nc2N1c1ccccc1 (centres undefined)
5 | < 10 | O=C1C(c2cccnc2)Cc2cnc(Nc3ccccc3)nc2N1c1ccccc1 (centres undefined)
6 | < 10 | COc1ccc(C2Cc3cnc(Nc4ccccc4)nc3N(c3ccccc3)C2=O)cc1 (centres undefined)
7 | < 10 | O=C1C(c2ccncc2)Cc2cnc(Nc3ccccc3)nc2N1c1ccccc1 (centres undefined)
8 | < 10 | COc1ccc(OC)c(C2Cc3cnc(Nc4ccccc4)nc3N(c3ccccc3)C2=O)c1 (centres undefined)
9 | < 10 | Cc1ccccc1C1Cc2cnc(Nc3ccccc3)nc2N(c2ccccc2)C1=O (centres undefined)
10 | < 10 | COc1ccc(C2Cc3cnc(Nc4cccnc4)nc3N(CC3CC3)C2=O)cc1 (centres undefined)
11 | > 10 | O=C1C(c2cc(C(F)(F)F)cc(C(F)(F)F)c2)Cc2cnc(Nc3ccccc3)nc2N1c1ccccc1 (centres undefined)
12 | < 10 | O=C1C(c2c(Cl)cccc2Cl)Cc2cnc(Nc3ccccc3)nc2N1c1ccccc1 (centres undefined)
13 | < 10 | COc1ccc(C2Cc3cnc(Nc4ccc(OC)nc4)nc3N(c3ccccc3)C2=O)cc1 (centres undefined)
14 | < 10 | COc1ccccc1C1Cc2cnc(Nc3ccccc3)nc2N(c2ccccc2)C1=O (centres undefined)
